# Results from US7045551B2 (Bristol-Myers Squibb Company, priority 2002, dated 2006).
# Assays:
# mKCNQ2 channels = biological target: T1, mKCNQ2 channels (Mus musculus, UniProt Q9Z351); assay: Whole-cell patch-clamp recordings of mKCNQ2 currents; type: cell-based; conditions: for EC50: HEK 293 stable cell line expressing mKCNQ2, @ −40 mV, room temperature; for Imax (%): HEK 293 stable cell line expressing mKCNQ2, Imax from Hill-type curve fit
# T1 construct: expressed in transfected cells
# Protocol: Whole-cell patch-clamp recordings were made from an HEK 293 stable cell line expressing mKCNQ2 channels, maintained in culture for 1–2 days. Patch pipettes had initial resistances of 2.5–4 MΩ. Currents were recorded with an EPC-9 amplifier (HEKA, Lambrecht, Germany) controlled with software (Pulse, HEKA) run on a standard lab PC. Series resistance compensation was used during current recording, and set at 80%. The series resistance (R) and cell capacitance (C) were determined electronically by subtracting the capacitive currents at the onset and offset of a 5 mV voltage step. The cancellation of whole-cell capacitive transients was virtually complete in all cells. Analog current signals were low-pass filtered at 2.9 kHz using a four-pole Bessel filter −3 dB) and stored on a local network server computer at a sampling rate of […]. All recordings were performed at room temperature (20–22° C.). The pipette solution contained (mM): KCl, 150; CaCl2, 2.5; EGTA, 5; MgCl2, 1; HEPES, 10; pH to 7.3 with KOH, and Osmolality of 290–300 mOsm. The extracellular solution contained (mM): NaCl, 140; KCl, 2.5; CaCl2, 2.5; MgCl2, 1; glucose, 10; HEPES, 10; pH to 7.3 with NaOH, and Osmolality of 305–310 mOsm
# Concentration response data were generated by measuring the difference in the steady-state amplitude of current in the presence of compound at the end of a 600 ms voltage-clamp step from a holding potential of −80 mV. The concentration-response data were fitted with Hill-type equations: I=Imax/(1+EC50/[A]^nH), where I is the steady-state current at a given concentration of agonist [A]; and Imax, EC50 and nH are parameters estimated from the curve fit. In some cases the concentration-response data were fitted with equations consisting of the sum of two Hill-type components. Current-voltage (I/V) relationships for agonist-evoked currents were obtained by performing 600 ms voltage steps (−110 mV to +40 mV) in the absence and presence of agonist.
# [1] = biological target: voltage-gated K+ channel KCNQ2 (Homo sapiens, UniProt O43526); assay: Thallium flux assay for openers of KCNQ potassium channels; type: cell-based; conditions: 10 point concentration series, concentration required to yield 50% of the maximal response
# Description: A thallium flux assay was used to detect and characterize openers of KCNQ potassium channels. The thallium assay is generally described in International application WO 02/31508 published Apr. 18, 2002. More specifically, the thallium influx assay to detect compounds that block or open the voltage-gated K^+ channel KCNQ2 is described in Example IV of the published WO 02/31508 application.
# For data analysis, the amplitude of the average of the negative controls was subtracted from all wells. The amplitudes of the test compounds were then compared to the value of four standard deviations of the negative control wells. The lowest concentration of a test compound sufficient to generate a signal amplitude greater than or equal to four standard deviations from the amplitude of the negative controls was defined as the minimal active concentration.
# For generating EC50 values, compounds were serially diluted in 1:3 volume increments to produce a 10 point concentration series. EC50 values were calculated by fitting the resulting amplitudes to a single-site logistic equation. EC50 was defined as the concentration of test compound required to yield 50% of the maximal response. Maximal response (Maximal opening) was the largest signal amplitude above the negative control generated by any concentration of a test compound.
EC50 (mKCNQ2 channels) [µM],Imax (%) (mKCNQ2 channels),EC50 [1] [µM],Compound
1.46,820,,"O=C(/C=C/c1ccc(F)cc1F)NC(CO)c1cccc(N2CCOCC2)c1 (stereo in doubt) [Example 18, (R)-3-(2,4-Difluoro-phenyl)-N-[2-hydroxy-1-(3-morpho-lin-4-yl-phen-yl)-ethyl]-acrylamide]"
,,0.039,"O=C(/C=C/c1cccc(F)c1)N[C@@H](CO)c1ccc2ccccc2c1 [Example 47, (R)-3-(3-Fluoro-phenyl)-N-(2-hy-droxy-1-naphthalen-2-yl-eth-yl)-acrylamide]"
0.619,981,0.503,"O=C(/C=C/c1ccc(F)cc1)N[C@@H](CO)c1ccc2ccccc2c1 [Example 48, (R)-3-(4-Fluoro-phenyl)-N-(2-hy-droxy-1-naphthalen-2-yl-eth-yl)-acrylamide]"
,,0.354,O=C(/C=C/c1ccccc1)N[C@@H](CO)c1ccc2ccccc2c1 [Example 49]
,,0.144,"O=C(/C=C/c1ccc(F)cc1F)N[C@@H](CO)c1ccc2ccccc2c1 [Example 55, (R)-3-(2,4-Difluoro-phen-yl)-N-(2-hydroxy-1-naph-thalen-2-yl-ethyl)-acryl-amide]"
,,0.892,"O=C(/C=C/c1ccc(F)c(F)c1)N[C@@H](CO)c1ccc2ccccc2c1 [Example 58, (R)-3-(3,4-Difluoro-phen-yl)-N-(2-hydroxy-1-naph-thalen-2-yl-ethyl)-acryl-amide]"
,,1.44,"O=C(/C=C/c1ccccc1Cl)N[C@H](c1ccc2ccccc2c1)[C@H](O)CO [Example 106, (1R,2S)-3-(2-Chloro-phenyl)-N-(2,3-dihydroxy-1-naph-thalen-2-yl-propyl)-acryl-amide]"
,,0.98,"O=C(/C=C/c1ccc(F)cc1F)N[C@H](c1ccc2ccccc2c1)[C@H](O)CO [Example 111, (1R,2S)-3-(2,4-Difluoro-phen-yl)-N-(2,3-dihydroxy-1-naph-thalen-2-yl-propyl)-acryl-amide]"
